Reference: ChEMBL document CHEMBL1201862, “PubChem BioAssay data set” (2004)
Calls of active or inactive are those of the source. For most assays here, no stated cut-off is given here; in the data, actives have a measured EC50 and inactives only a lower limit.

Key:
[1] = NIH-3T3 fibroblast cytotoxicity, dose response, cytotoxicity control, cell-based, fluorescence, Alamar Blue, secondary assay (AID 2327); assay type: functional;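 further: NIH-3T3 mouse fibroblasts cultured with fluconazole at 8 µg/mL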
[2] = C. albicans growth with fluconazole, confirmation, fluorescence, retest (AID 2467); assay type: functional, cell-based
[3] = biological target: T1, Serine/threonine-protein phosphatase (Candida dubliniensis (strain CD36 / CBS 7987 / NCPF 3949 / NRRLY-17841) (Yeast), UniProt B9W6M3); assay: calcineurin pathway inhibitors in yeast reporter, dose response, S. cerevisiae, CDRE-lacZ, luminescence, secondary (AID 2388); assay type: functional, cell-based;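 further: yeast reporter cells carrying a calcineurin-responsive lacZ construct stimulated with calcium chloride; luminescent beta-galactosidase reporter signal in whole cells rather than isolated phosphatase activity; potency for inhibition where a drop in reporter signal means calcineurin blockade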
T1 sequence (B9W6M3 whole entry): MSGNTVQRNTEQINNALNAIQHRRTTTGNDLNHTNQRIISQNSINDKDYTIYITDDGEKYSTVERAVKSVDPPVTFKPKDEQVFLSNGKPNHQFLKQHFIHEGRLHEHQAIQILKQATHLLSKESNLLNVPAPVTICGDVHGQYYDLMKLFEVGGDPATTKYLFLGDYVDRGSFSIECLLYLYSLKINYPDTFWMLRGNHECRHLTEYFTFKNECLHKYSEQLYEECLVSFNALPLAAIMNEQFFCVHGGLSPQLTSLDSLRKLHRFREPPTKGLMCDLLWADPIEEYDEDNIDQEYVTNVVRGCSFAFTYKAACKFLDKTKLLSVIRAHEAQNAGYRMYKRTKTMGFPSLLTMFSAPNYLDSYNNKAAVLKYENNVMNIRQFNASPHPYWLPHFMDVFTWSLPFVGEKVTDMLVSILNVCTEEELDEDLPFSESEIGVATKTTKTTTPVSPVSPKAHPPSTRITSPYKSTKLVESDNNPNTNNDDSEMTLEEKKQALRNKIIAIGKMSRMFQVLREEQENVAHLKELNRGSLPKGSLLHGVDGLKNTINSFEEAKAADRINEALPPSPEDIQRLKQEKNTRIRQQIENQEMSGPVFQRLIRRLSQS

[4] = biological target: ATP-dependent molecular chaperone HSP82 (Candida albicans (strain WO-1) (Yeast), UniProt C4YTQ8); assay: loss of DOC-induced GRE-beta-galactosidase reporter signal, dose response, Hsp90 inhibitor project, S. cerevisiae, luminescence (AID 2400); assay type: functional, cell-based;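 further: beta-galactosidase luminescence from glucocorticoid response element reporter as proxy for Hsp90 function; inhibitor potency where signal loss means Hsp90 inhibition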
[5] = test system: Streptococcus sp. 'group A'; assay: growth inhibition of control SK(-) GAS strain, dose response, counter-screen for streptokinase expression inhibitor project, luminescence, kanamycin, BacTiterGlo, confirmation (AID 1900); assay type: functional, organism-based
Beta-galactosidase = Beta-galactosidase (Escherichia coli, UniProt Q8VNN2); assay: PubChem AID 485352; assay type: functional
Streptokinase A = biological target: T2, Streptokinase A (Streptococcus pyogenes serotype M1, UniProt P10520); assay: S. pyogenes streptokinase expression inhibitors, potency, dose response, plasminogen activation absorbance, OD405 (AID 1914); assay type: functional, Streptococcus pyogenes M1 GAS;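 further: secreted streptokinase activity via plasminogen activation per viability signal from cell pellet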
T2 sequence (P10520 whole entry): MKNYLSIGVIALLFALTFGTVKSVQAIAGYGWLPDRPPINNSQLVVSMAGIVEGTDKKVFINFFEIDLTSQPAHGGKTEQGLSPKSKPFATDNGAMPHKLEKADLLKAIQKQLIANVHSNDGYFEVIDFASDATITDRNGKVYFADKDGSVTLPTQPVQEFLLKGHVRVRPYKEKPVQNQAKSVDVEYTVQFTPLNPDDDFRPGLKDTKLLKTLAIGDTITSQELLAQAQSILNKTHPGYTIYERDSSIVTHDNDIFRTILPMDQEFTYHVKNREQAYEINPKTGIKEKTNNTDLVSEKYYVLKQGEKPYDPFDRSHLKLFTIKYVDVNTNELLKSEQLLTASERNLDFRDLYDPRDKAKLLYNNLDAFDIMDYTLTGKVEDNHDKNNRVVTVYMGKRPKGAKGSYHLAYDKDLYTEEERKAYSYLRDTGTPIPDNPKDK

[6] = inhibitors of intracellular T. cruzi replication, confirmation, NIH3T3 host cells, beta-gal luminescence (AID 2044); assay type: functional, cell-based;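 further: intracellular parasites grown in NIH/3T3 mouse fibroblasts as host cells; luminescent beta-galactosidase reporter signal from transgenic T. cruzi replicating inside host cells; inhibitors lower the luminescence signal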
[7] = biological target: T3, Type-1 angiotensin II receptor (Homo sapiens, UniProt P30556); assay: AT1 receptor antagonists, dose response, selectivity assay for APJ receptor antagonist project, cell-based, uHTS hits (AID 463214); assay type: functional;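 further: antagonist potency against angiotensin II stimulated AT1 response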
T3 sequence (P30556 whole entry): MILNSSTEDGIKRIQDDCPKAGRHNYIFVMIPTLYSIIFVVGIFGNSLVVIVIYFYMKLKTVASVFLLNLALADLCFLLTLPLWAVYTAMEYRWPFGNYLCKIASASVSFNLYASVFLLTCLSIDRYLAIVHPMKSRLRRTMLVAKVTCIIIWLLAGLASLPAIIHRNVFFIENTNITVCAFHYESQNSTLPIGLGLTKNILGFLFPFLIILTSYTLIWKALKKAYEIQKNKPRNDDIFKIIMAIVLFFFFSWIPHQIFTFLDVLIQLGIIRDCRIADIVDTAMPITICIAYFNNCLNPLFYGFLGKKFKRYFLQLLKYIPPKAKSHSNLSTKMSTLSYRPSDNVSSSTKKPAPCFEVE

[8] = cytotoxicity toward NIH3T3 fibroblasts, dose response, counter-screen, cell-based, ATP luminescence, mouse fibroblasts (AID 2010); assay type: functional;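 further: cells exposed to compound for about 90 hours before reading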
Streptococcus = assay: Group A Streptococcus viability loss, dose response, counter-screen for streptokinase expression inhibitor project, luminescence, BacTiterGlo (AID 1915); assay type: functional, organism-based;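 further: potency for reduction of bacterial viability or growth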
[9] = biological target: T4, Heat shock factor protein 1 (Mus musculus, UniProt P38532); assay: HSF1 potentiators in luciferase reporter cells, confirmation, cell-based, NIH3T3, luminescence, dose retest (AID 435004); assay type: functional;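 further: stress induced by proteasome inhibitor MG132 added 30 min after compound; luciferase reporter driven by HSF1 response element in NIH3T3 cells; actives raise luminescence as potentiators of the MG132 stress response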
T4 sequence (P38532 whole entry): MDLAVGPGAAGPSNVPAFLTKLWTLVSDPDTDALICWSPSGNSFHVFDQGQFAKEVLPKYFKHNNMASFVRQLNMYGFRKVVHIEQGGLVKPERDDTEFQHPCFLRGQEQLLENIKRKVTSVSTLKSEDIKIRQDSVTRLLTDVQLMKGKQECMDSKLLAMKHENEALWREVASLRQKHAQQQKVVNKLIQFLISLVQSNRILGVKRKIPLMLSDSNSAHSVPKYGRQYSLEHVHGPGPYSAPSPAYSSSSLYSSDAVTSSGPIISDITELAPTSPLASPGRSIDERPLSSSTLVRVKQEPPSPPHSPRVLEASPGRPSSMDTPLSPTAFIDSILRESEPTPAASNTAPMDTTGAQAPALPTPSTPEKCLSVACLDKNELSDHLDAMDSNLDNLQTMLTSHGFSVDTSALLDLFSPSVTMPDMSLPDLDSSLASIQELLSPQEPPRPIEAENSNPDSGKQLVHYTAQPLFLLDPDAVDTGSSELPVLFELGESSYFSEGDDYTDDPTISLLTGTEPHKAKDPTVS

H9c2 = assay: cells; assay type: functional, cell-based; conditions: Rattus norvegicus, H9c2, Myocardium;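 further: confirmatory concentration-response retest of ultra-high-throughput screening hits for modulation of myocardial damage; cell death induced by hydrogen peroxide oxidative stress; compound pretreatment for 60 min then peroxide exposure for 2 h; potency is for protecting the cells against peroxide damage rather than for killing them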
[10] = Shn3 3'UTR reporter inhibitors, dose response, cell-based, Clone20 osteoblasts, firefly luciferase, cherry-picked (AID 624132); assay type: functional;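 further: firefly luciferase luminescence from reporter carrying the Shn3 3'UTR in osteoblasts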
[11] = HepG2 cell cytotoxicity, dose response, cytotoxicity control for Shn3 inhibitor project, CellTiter-Glo, cherry-picked (AID 624134); assay type: functional, cell-based
Hexokinase-1 = biological target: T5, Hexokinase-1 (Homo sapiens, UniProt P19367); assay: SAR analysis of small molecule inhibitors of hexokinase domain containing I (HKDC1) in the hexokinase 1 selectivity assay. [Related pubchem assays (depositor defined):AID493160, AID493190]; assay type: functional
T5 sequence (P19367 whole entry): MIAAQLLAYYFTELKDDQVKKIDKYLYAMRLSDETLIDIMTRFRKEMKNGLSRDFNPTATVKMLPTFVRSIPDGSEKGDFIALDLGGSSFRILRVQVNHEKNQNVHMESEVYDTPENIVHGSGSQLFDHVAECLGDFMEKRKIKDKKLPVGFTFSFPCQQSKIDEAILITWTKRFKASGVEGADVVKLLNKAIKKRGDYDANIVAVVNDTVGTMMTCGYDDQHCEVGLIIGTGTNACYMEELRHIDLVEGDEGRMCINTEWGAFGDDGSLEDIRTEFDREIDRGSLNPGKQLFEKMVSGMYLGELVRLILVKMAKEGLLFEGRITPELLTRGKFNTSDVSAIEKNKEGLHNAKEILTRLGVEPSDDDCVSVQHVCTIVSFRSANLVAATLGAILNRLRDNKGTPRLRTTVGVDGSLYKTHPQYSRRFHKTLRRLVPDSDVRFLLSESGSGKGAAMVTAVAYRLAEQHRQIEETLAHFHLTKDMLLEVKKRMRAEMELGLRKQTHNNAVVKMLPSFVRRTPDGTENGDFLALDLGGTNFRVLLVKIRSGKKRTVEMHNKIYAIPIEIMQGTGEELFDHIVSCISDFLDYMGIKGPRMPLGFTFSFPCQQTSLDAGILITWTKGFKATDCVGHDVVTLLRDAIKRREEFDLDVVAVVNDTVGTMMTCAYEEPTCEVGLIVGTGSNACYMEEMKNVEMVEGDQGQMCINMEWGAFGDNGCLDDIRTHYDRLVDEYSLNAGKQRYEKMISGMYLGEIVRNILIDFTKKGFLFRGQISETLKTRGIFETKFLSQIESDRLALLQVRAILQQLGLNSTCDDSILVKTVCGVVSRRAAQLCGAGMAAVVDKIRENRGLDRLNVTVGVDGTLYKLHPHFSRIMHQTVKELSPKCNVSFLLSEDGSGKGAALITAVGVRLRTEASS

Hexokinase HKDC1 = biological target: T6, Hexokinase HKDC1 (Homo sapiens, UniProt Q2TB90); assay: SAR analysis of small molecule inhibitors of hexokinase domain containing I (HKDC1). [Related pubchem assays (depositor defined):AID493160, AID493190]; assay type: functional
T6 sequence (Q2TB90 whole entry): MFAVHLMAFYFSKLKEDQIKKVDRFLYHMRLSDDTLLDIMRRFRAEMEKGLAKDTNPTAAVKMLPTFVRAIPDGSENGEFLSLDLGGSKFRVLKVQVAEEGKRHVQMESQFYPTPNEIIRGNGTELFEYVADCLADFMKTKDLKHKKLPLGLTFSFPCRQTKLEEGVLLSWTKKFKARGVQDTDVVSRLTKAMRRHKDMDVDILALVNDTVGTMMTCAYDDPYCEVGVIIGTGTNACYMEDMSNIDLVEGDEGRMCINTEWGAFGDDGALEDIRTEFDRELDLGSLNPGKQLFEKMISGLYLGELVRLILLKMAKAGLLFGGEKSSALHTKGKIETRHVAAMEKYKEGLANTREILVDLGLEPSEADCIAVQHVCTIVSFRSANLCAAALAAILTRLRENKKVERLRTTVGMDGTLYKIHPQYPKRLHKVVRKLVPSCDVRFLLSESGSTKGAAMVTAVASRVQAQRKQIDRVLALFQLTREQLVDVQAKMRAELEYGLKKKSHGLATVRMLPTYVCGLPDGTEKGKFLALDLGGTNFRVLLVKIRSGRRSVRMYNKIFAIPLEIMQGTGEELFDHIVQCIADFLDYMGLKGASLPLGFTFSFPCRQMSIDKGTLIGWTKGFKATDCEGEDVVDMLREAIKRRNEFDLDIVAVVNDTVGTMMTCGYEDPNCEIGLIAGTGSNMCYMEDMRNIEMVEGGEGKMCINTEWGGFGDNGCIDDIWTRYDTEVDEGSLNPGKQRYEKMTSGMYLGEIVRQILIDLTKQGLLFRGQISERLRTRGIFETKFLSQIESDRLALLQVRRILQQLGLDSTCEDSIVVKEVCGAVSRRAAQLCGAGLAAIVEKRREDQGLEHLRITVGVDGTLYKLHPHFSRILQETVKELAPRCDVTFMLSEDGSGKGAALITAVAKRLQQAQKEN

Sequence of ATP-dependent molecular chaperone HSP82 (C4YTQ8 whole entry): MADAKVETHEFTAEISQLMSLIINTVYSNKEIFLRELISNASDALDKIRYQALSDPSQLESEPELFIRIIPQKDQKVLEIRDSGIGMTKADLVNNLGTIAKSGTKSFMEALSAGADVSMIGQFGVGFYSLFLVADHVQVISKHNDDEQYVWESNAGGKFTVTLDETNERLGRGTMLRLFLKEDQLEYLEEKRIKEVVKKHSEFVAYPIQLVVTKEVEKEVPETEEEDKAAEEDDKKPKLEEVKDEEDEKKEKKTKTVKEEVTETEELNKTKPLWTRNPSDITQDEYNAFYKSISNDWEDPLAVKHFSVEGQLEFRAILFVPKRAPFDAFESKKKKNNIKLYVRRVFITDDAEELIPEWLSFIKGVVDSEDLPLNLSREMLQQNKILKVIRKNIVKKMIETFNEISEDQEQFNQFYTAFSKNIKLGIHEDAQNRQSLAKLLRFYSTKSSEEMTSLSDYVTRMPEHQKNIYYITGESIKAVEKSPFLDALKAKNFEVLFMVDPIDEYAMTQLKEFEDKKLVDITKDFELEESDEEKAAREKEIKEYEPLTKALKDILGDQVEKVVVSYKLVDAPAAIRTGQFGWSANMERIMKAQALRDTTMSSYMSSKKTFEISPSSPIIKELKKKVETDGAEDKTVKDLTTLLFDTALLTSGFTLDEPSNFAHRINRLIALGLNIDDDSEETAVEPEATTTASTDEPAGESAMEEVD
Sequence of Beta-galactosidase (Q8VNN2 whole entry): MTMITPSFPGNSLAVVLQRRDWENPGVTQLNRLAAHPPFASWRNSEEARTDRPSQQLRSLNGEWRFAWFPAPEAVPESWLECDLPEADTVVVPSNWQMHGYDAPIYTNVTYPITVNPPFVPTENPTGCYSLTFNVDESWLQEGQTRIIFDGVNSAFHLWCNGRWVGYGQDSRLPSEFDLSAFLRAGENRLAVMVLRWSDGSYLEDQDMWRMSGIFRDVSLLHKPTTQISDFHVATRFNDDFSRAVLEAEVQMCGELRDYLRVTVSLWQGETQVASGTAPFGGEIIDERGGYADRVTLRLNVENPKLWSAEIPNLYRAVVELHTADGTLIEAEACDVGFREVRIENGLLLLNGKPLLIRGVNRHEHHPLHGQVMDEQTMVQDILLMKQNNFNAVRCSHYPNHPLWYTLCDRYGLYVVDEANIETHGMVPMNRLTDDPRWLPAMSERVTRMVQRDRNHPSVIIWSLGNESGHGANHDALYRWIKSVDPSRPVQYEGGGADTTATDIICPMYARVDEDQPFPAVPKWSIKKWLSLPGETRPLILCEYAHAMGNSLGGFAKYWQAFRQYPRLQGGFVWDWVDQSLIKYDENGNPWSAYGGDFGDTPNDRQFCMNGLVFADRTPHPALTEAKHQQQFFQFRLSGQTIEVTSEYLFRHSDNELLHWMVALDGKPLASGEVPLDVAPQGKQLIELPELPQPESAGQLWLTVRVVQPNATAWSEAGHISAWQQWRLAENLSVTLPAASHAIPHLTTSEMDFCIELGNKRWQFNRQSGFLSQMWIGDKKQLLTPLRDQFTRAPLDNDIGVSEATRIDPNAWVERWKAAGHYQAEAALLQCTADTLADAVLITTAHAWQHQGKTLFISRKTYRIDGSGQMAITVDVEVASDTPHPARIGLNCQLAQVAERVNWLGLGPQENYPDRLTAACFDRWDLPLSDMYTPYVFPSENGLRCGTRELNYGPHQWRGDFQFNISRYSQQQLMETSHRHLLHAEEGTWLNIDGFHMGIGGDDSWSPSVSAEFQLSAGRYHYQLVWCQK

Structure (SMILES)	EC50 [1]	EC50 [2]	EC50 [3]	EC50 [4]	IC50 (Hexokinase-1)	IC50 (Hexokinase HKDC1)	other results
O=C(Cc1ccc(Cl)cc1)NNC(=S)NC(=O)c1cccs1	> 160 µM (inactive)	1.43 µM (active)	> 180 µM (inactive)	16.6 µM (active)			
O=C(CCS(=O)(=O)c1ccc(F)cc1)Nc1nc(-c2ccncc2)cs1	18.3 µM (inconclusive)	1.39 µM (active)	> 180 µM (inactive)	16.5 µM (active)			
COc1ccc(NS(=O)(=O)c2ccc3ccccc3c2)c2ncccc12	60.9 µM (active)	> 38 µM (not active)					EC50 [5]: 1.03 µM (active); EC50 (Beta-galactosidase): > 40 µM (inactive); EC50 (Streptokinase A): > 150 µM (not active); EC50 [6]: 0.688 µM (active); IC50 [7]: 23.1 µM (not active); EC50 [8]: 5.55 µM (active); EC50 (Streptococcus): 4.63 µM (active); EC50 [9]: 7.48 µM (active); IC50 (H9c2): 11.5 µM (active); AC50 [10]: 4.82 µM (active); AC50 [11]: 69.5 µM (active)
Cc1cc2nnc(SCC(=O)Nc3cccc(S(=O)(=O)N4CCCC4)c3)n2c2ccccc12					> 80 µM (inactive)	> 80 µM (inactive)	
O=c1c2ccccc2nc(/C=C/c2ccccn2)n1Cc1ccccc1					> 80 µM (inactive)	> 80 µM (inactive)	
O=c1c2ccccc2nc(/C=C/c2ccccc2)n1Cc1ccccc1					> 80 µM (inactive)	> 80 µM (inactive)	
